According to patent US20070099822A1, “Regulation of tissue mineralization and phosphate metabolism by asarm peptides” (priority 2003, published 2007):
Entries after “also recorded” stand apart in the source; their conditions may differ. Read-outs that look alike come from different tables or passages of the source. Square brackets hold non-standard residues; d marks the D form. Peptide text beside a SMILES is read from it. pS = N[C@@H](COP(=O)(O)O)C(=O)O

Experiments:
[1] = system: male ICR Swiss mice; assay: Example VI: subcutaneous PO4-ASARM-peptide or etidronate, calcein fluorescence and Sanderson osteoid staining; format: in vivo; details: PO4-ASARM-peptide 2 mg/kg/day
Protocol: Subcutaneous administration of PO4-ASARM-peptide, etidronate (EHDP), and calcein. Three separate groups of male ICR Swiss mice (4-5 weeks) were subcutaneously injected once a day (9:00AM), for 12 days except for days 6 and 7 with 50 μL solutions of either (1) Eitidronate (EHDP) (10 mg/kg/day); (2) PO4-ASARM-peptide (2 mg/kg/day); or (3) vehicle consisting of 5 mM HEPES pH 7.4/150 mM NaCL/0.1% BSA. The synthetic PO4-ASARM-peptide was dissolved in vehicle (1.0 mg/mL). Etidronate was first dissolved in 150 mM NaCl and then buffered to pH 7.5 with 1M NaOH to give a 5 mg/mL solution. The 10 mg/kg/day doses of etidronate have previously been reported to inhibit mineralization in rats and were used as positive controls (Trechsel, et al., Am J Physiol 232(3):E298-305, 1977; Bonjour, et al., Am J Physiol 229(2):402-8, 1975). All three groups were subcutaneously injected with calcein (20 mg/kg/day) on days 3, 5, […]. The degree of calcein fluorescence and/or fluorescence-quenching is an indicator of mineralization status (see next section). The calcein injections when given were administered 1 h after the daily injections of PO4-ASARM-peptide, EHDP or vehicle. Animals were then terminated humanely and calvariae plus femurs/tibia were fixed in 70% ethanol (non-decalcified). After fluorescence imaging (see FIG. 35) calvariae were processed in plastic and stained with Sanderson's stain (see below). Five animals per group were used for statistical analysis of fluorescence quenching and histological Sanderson staining.
Calcein fluorescence in mice calvariae, hind-limbs & fluor-imager analysis of mineralization. A Bio-Rad (Hercules, Calif.) FluorImager^max fluorescent imager was used to simultaneously image all the samples from each of the 3 groups (15 animals; five animals per group). This consisted of 10 tibia/femurs and 5 calvariae per group. Samples were placed on top of the FluorImager plate contained within a light-tight box. Ultra-violet light was used to generate calcein-mediated epi-fluorescence and the fluorescent-image was captured on a −40° C., peltier-cooled, 1,340×1040 pixel CCD resolution, CCD digital-camera. Quantitation of fluorescence was carried out using Quantity-1 (Bio-Rad, Hercules, Calif.) fluorescence-software. Pixel saturation was prevented by internal software calibration and exposure adjustment. All fluorescence readings were thus accurately quantitative and non-saturating. Photo-micrographic UV fluorescent analysis of calvarial cross sections embedded in plastic and mounted as slides (<100 micrometer sections) was also undertaken and a description of the fixation and processing is given in the next section.
Sanderson-staining and fluorescence detection of calvarial osteoid & mineralized bone. Staining of non-decalcified calvarial sections was performed using the method described by Sanderson and Bachus (Staining technique to differentiate mineralized and demineralized bone in ground sections, J Histotechnol 20(2): 119-122, 1997). This technique provides differential staining between unmineralized osteoid and mineralized bone. Prior to staining, calvariae were dissected and attached tissue removed. Calvariae were then placed in 70% ethanol for further fixation as described by Sanderson and Bachus (supra). After fixing and processing undecalcified calvariae were embedded in plastic (LR-white acrylic resin (London Resin Co., Reading, England)) as previously described (Garrett, et al., Selective inhibitors of the osteoblast proteasome stimulate bone formation in vivo and in vitro, J Clin Invest 111(11):1771-1782, 2003). Plastic embedded sections were ground to <100 micrometers using a specialized grinding-pestle as described by Donath and Breuner (A method for the study of undecalcified bones and teeth with attached soft tissues. The Sage-Schliff (sawing and grinding) technique, J Oral Pathol 11(4):318-26, 1982). […]

[2] = target: T1, MEPE-PHEX interaction (Homo sapiens, UniProt P78562); assay: Surface plasmon resonance, peptide solution competition of secPHEX-MEPE binding
T1 construct: to generate a soluble, secreted form of PHEX; made in house; host or cells: secPHEX: mammalian cells (gift, University of Montreal); MEPE: S. frugiperda insect cells
T1 sequence (P78562 46-749 limits assumed): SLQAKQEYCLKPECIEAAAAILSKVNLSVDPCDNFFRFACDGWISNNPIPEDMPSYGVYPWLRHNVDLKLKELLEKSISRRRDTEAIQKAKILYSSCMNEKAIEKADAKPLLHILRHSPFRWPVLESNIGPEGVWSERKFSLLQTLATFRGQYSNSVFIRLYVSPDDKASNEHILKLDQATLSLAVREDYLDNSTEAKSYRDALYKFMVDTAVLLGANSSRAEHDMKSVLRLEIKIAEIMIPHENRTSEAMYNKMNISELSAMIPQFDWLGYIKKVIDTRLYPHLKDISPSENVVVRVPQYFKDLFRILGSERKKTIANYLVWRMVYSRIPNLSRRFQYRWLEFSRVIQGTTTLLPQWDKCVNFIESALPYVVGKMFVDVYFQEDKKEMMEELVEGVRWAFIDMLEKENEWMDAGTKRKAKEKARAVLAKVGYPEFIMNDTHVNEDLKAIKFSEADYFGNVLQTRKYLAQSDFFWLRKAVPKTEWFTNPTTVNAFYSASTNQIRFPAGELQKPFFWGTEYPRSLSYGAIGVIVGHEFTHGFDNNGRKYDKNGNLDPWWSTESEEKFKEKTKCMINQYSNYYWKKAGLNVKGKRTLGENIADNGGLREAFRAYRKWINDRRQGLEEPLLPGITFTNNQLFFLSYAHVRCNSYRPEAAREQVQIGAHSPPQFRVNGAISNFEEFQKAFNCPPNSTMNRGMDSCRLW
From the text: Surface Plasmon Resonance: Synthetic peptides & competitive PHEX-MEPE binding studies. For these experiments CM-5 chips containing flow-cells immobilized with MEPE, PHEX and IgG ligands at 6000 RU were used. Just prior to SPR injection, stock solution of specific-peptide (as defined for each experiment; see Table 1), and dissolved in analyte buffer (HBS-P—Zn) […] The following equation was used to compute KDapp values: RU=Bmax/inhib×(peptide(μM))/KDapp+(peptide(μM)). The Bmax/inh value represents the maximal percentage inhibition change in RU (i.e., PHEX-MEPE binding) relative to the “non-peptide” control (0% inhibition of binding), using a constant analyte flow-solution of secPHEX of 250 nM against immobilized MEPE ligand at 6000 RU. […] The control MEPE-RGD peptide had no effect on MEPE-PHEX interactions.

[3] = system: mouse osteoblast cell-line 2T3; assay: Mineralized bone matrix formation assay (von Kossa), BMP2-induced; format: cell-based; details: 2T3 cells, BMP2 100 ng/mL; Hu-MEPE 10-800 ng/mL, ASARM-peptide 60 and 300 ng/mL, control peptide 300 ng/mL
From the text: Mineralized bone matrix formation assay. A mouse osteoblast cell-line (2T3-cells) were monitored using a mineralized matrix formation assay as described by Bhargava et al. (Ultrastructural analysis of bone nodules formed in vitro by isolated fetal rat calvaria cells. Bone 9:155-63, 1988) and cultured as described previously (Bhargava et al., supra; Chen et al. Differential roles for bone morphogenetic protein (BMP) receptor type IB and IA in differentiation and specification of mesenchymal precursor cells to osteoblast and adipocyte lineages. J Cell Biol 142:295-305, 1998; and Zhao, et al. Bone morphogenetic protein receptor signaling is necessary for normal murine postnatal bone formation. J Cell Biol 157:1049-60, 2002). Mineralization of the murine osteoblastic 2T3 cell-line has been extensively studied using physical techniques, electron microscopy and histological techniques. This cell line (2T3) undergoes exogenous BMP2-induced mineralized-matrix indistinguishable from normal bone-mineral hydroxyapatite in-vitro (Bhargava et al., supra; Chen et al., supra; and Zhao et al., supra). The cells were plated in 24-well culture plates at density of 2×10^4 cells/well and cultured with minimal essential medium (MEM) supplemented with 10% FCS. When the cells reached confluency (day 0), the medium was changed to MEM containing 5% FCS, 100 μg/mL ascorbic acid and 5 mM β-glycerol phosphate with or without 100 ng/mL of BMP-2. The effects of Hu-MEPE, MEPE ASARM-peptide and control peptide at different doses (see results section) in the absence and presence of BMP2 were measured using the von Kossa stain for mineralization. The medium was changed every other day and fresh reagents were added. Von Kossa stain of mineralized bone matrix was performed as follows. The cell cultures were washed with PBS twice, fixed in phosphate buffered formalin for 10 min, and then washed with water, and serially dehydrated in 70%, 95%, and 100% ethanol, twice each and air dried. The plates were rehydrated from 100% to 95% to 80% ethanol to water before staining. The water was removed, a 2% silver nitrate solution was added, and the plates were exposed to sunlight for 20 min, after which the plates were rinsed with water. 5% sodium thiosulfate was added for 3 min and the plates were then rinsed with water. The modified van Gieson stain was then used as a counterstain after the von Kossa stain. The unmineralized collagen matrix can be recognized by the yellow/red van Gieson stain. The acid fuchsin solution (5 part of 1% acid fuchsin, 95 part of picric acid, and 0.25 part of 12 M HCl) was added for 5 min. The plates were washed with water, and then 2×95% ethanol and 2×100% ethanol, and dried for image analysis. The area of von Kossa stained matrix was quantitated as previously described (Chen et al., supra). Briefly matrix was quantified by automated image analysis using a video analysis program (Jandel Scientific, San Rafael Calif.) and also a Bio-Rad (Hercules, Calif.) Quantity-1 image analysis capture program. A video screen camera (CCD/RGB; Sony Corp., Park Ridge, N.J.) linked to a microscope (model BH2; Olympus Corp., Precision Instruments Division, Lake Success, N.Y.) equipped with metallurgical lens was used to image plates.

| Compound | tibiae-femurs fluorescence-signal reduction relative to vehicle [1] [%] | increase of osteoid layer thickness relative to vehicle ([1]; etidronate 10 mg/kg/day) [fold] | percentage quenching of calvarial calcein fluorescence relative to vehicle ([1]; etidronate 10 mg/kg/day) [%] | calvariae calcein fluorescence ([1]; etidronate 10 mg/kg/day, s.c. 12 days, vehicle 1100.5) | calvarial osteoid relative thickness (Sanderson staining) ([1]; etidronate 10 mg/kg/day, vehicle 2.3) | tibiae-femurs calcein fluorescent intensity ([1]; vehicle 268.52) | Bmax/inh, maximal percentage-inhibition of MEPE-PHEX binding ([2]; 250 nM secPHEX, MEPE 6000 RU) [%] | Kd ([2]; 250 nM secPHEX, MEPE 6000 RU, read-out: apparent KDapp, solution competition of MEPE-PHEX binding) [µM] | Kd ([2]; apparent KDapp, solution competition of secPHEX-MEPE binding, 250 nM secPHEX, MEPE 6000 RU (FIG. 34 legend), heading: apparent KDapp, solution competition of secPHEX-MEPE binding) [µM] | inhibition of MEPE-PHEX interaction ([2]; peptide pre-mixed with secPHEX, MEPE-RGD up to 85 μM) | effect on BMP2-mediated mineralization (von Kossa staining) [3] |
| --- | --- | --- | --- | --- | --- | --- | --- | --- | --- | --- | --- |
| N=C(N)NCCC[C@H](N)C(=O)N[C@@H](CC(=O)O)C(=O)N[C@@H](CC(=O)O)C(=O)N[C@@H](CO)C(=O)N[C@@H](CO)C(=O)N[C@@H](CCC(=O)O)C(=O)N[C@@H](CO)C(=O)N[C@@H](CO)C(=O)N[C@@H](CC(=O)O)C(=O)N[C@@H](CO)C(=O)NCC(=O)N[C@@H](COP(=O)(O)O)C(=O)N[C@@H](CO)C(=O)N[C@@H](COP(=O)(O)O)C(=O)N[C@@H](CCC(=O)O)C(=O)N[C@@H](COP(=O)(O)O)C(=O)N[C@@H](CC(=O)O)C(=O)NCC(=O)N[C@@H](CC(=O)O)C(=O)O [PO4-ASARM-peptide, RDDSSESSDSG(Sp)S(Sp)E(Sp)DGD] (H-RDDSSESSDSG[pS]S[pS]E[pS]DGD-OH) | 44.5 | 3.5 | 62 | 568.7 fluorescent intensity units | 8.0 | 148.9 | 68 | 15 | 15 | able to inhibit; also recorded: dramatic dose-dependent inhibition |  |
| CGSGYTDLQERGDNDISPFSGDGQPF (Homo sapien) [control peptide, reference compound] |  |  |  |  |  |  |  |  |  |  | failed to elicit any changes in mineralization |
